Results from patent publication US11400106B2, “Methods for inhibiting microbe growth” (priority 2018, dated 2022).
Where two headings read alike, the source gives them in different places.

Legend:
[1] = test system: S. aureus; experiment: microbe, parasite or virus in culture; details: for MIC: Staphylococcus aureus, 18 h, read-out: MIC, S. aureus, MHB−; for Fold, S. aureus: fold shift in MIC; for effect of 25 mM sodium bicarbonate on antibacterial activity: result in words
Experimental: (§1) In the following experiments, bacterial cells were cultured in 96-well microtiter plates in cation-adjusted Mueller-Hinton Broth (MHB) for 18 h at 37° C. The main strains used were E. coli (K-12 BW25113) (placed in stationary incubator) and S. aureus (Newman Strain) (incubated at 250 r.p.m). Knockout strains (ΔtolcC and ΔychM) were used from the Keio knockout collection (Baba et al., Construction of Escherichia coli K-12 in-frame, single-gene knockout mutants: the Keio collection. Mol Syst Biol 2, 2006 0008, doi:10.1038/msb4100050 (2006)). For MIC determination and checkerboard analyses, Clinical & Laboratory Standards Institute (CLSI) protocol was used. […] DiSC3 loading of S. aureus cells was performed as previously described (Farha et al., Collapsing the proton motive force to identify synergistic combinations against Staphylococcus aureus. Chemistry & biology 20, 1168-1178, doi:10.1016/j.chembiol.2013.07.006 (2013)). CCCP concentration of 20 μM was used. pH adjustments were made by addition of HCl or NaOH. INT assay and ATP bioluminescence assays were performed as previously described (Farha et al., Collapsing the proton motive force to identify synergistic combinations against Staphylococcus aureus. Chemistry & biology 20, 1168-1178, doi:10.1016/j.chembiol.2013.07.006 (2013)). For chemical-genomic studies, the Keio library was grown overnight in cation-adjusted MHB broth, in 384-well plates. From these, treatment plates (25 mM sodium bicarbonate, or a sterile water control) were inoculated and grown for 15 hours at 37° C., in a stationary incubator. Data was normalized according to Mangat et al (Mangat et al., Rank ordering plate data facilitates data visualization and normalization in high-throughput screening. J Biomol Screen 19, 1314-1320, doi:10.1177/1087057114534298 (2014)), with gene products and GO terms mined from EcoCyc. The GFP promoter library (Keseler et al., EcoCyc: fusing model organism databases with systems biology. Nucleic Acids Res 41, D605-612, doi:10.1093/nar/gks1027 (2013)) was grown for 18 hours at ambient temperature with the same inoculation strategy as with the Keio collection. The analysis pipeline of Zaslaver et al (Zaslaver et al., A comprehensive library of fluorescent transcriptional reporters for Escherichia coli. Nat Methods 3, 623-628, doi:10.1038/nmeth895 (2006)) was used to generate maps of promoter activity, from which lists of promoters with increased or decreased activity were compiled.
(§2) Fold enhancement in MICs in the media supplemented with sodium bicarbonate is represented by a positive fold, whereas suppression of activity is represented by a negative fold.
(§3) The effect of sodium bicarbonate on the activity of additional antibacterial agents was investigated. Clinical isolates of various bacteria were obtained from the ATCC and the IHMA.
(§4) The effect of sodium bicarbonate on the activity of cationic antiseptic agents was investigated. Clinical isolates of various bacteria were obtained from the ATCC and the IHMA.

[2] = test system: E. coli; experiment: microbe, parasite or virus in culture; type: cell-based, Escherichia coli; details: for MIC: Escherichia coli, 18 h, read-out: MIC, E. coli, MHB−
Experimental: as §1, §2, §3, §4

[3] = MHB in the absence of sodium bicarbonate
[4] = antibiotic agents, MHB in the absence of sodium bicarbonate
[5] = antibiotic agents, MHB in the presence of 25 mM sodium bicarbonate
[6] = MHB in the presence of 25 mM sodium bicarbonate
[7] = antiseptic agents, MHB in the absence of sodium bicarbonate
[8] = antiseptic agents, MHB in the presence of 25 mM sodium bicarbonate

Compound: NC[C@@H]1O[C@H](O[C@H]2[C@@H](O)[C@H](O[C@@H]3[C@@H](O)[C@H](N)C[C@H](N)[C@H]3O[C@H]3O[C@H](CO)[C@@H](O)[C@H](O)[C@H]3N)O[C@@H]2CO)[C@H](N)[C@@H](O)[C@@H]1O [Paromomycin]
- MIC, S. aureus, MHB+ [1]: 2
- MIC [1]: 2 mg/L
- MIC [2, 3]: 2 mg/L

Compound: CCN1CCN(C(=O)N[C@@H](C(=O)N[C@@H]2C(=O)N3[C@@H]2SC(C)(C)[C@@H]3C(=O)O)c2ccccc2)C(=O)C1=O [Piperacillin]
- MIC, S. aureus, MHB+ [1]: 1
- MIC [1]: 0.25 mg/L
- MIC [2, 3]: 2 mg/L

Compound: C=C[C@]1(C)C[C@@H](OC(=O)CO)[C@]2(C)[C@H](C)CC[C@]3(CCC(=O)[C@H]32)[C@@H](C)[C@@H]1O [Pleuromutilin]
- MIC, S. aureus, MHB+ [1]: 1 μg of antimicrobial agent/mL of buffer
- MIC [1]: 1 mg/L
- MIC, E. coli, MHB+ [2]: >128 μg of antimicrobial agent/mL of buffer
- MIC [2, 4]: > 128 mg/L

Compound: CC(C)C[C@H](NC(=O)[C@H](CCCNC(=N)N)NC(=O)CNC(=O)CNC(=O)[C@@H](N)CCCNC(=N)N)C(=O)N[C@H]1CSSC[C@@H](C(=O)N[C@H](C(=O)NCC(=O)N[C@@H](CCCNC(=N)N)C(N)=O)C(C)C)NC(=O)[C@H](C(C)C)NC(=O)[C@@H]2CSSC[C@H](NC(=O)[C@H](Cc3ccc(O)cc3)NC1=O)C(=O)N[C@@H](CCCNC(=N)N)C(=O)N[C@@H](CCCNC(=N)N)C(=O)N[C@@H](CCCNC(=N)N)C(=O)N[C@@H](Cc1ccccc1)C(=O)N2 [Protegrin]
- enhancement of antimicrobial activity in the presence of bicarbonate ([1]; S. aureus, 25 mM sodium bicarbonate): 8 fold
- enhancement of antimicrobial activity in the presence of bicarbonate [2]: 8 fold

Compound: CO[C@H]1/C=C/O[C@@]2(C)Oc3c(C)c(O)c4c(O)c(c(/C=N/N5CCN(C)CC5)c(O)c4c3C2=O)NC(=O)/C(C)=C\C=C\[C@H](C)[C@H](O)[C@@H](C)[C@@H](O)[C@@H](C)[C@H](OC(C)=O)[C@@H]1C [Rifampicin]
- MIC, S. aureus, MHB+ [1]: 0.031
- MIC [1]: 0.0078 mg/L
- MIC [2, 3]: 32 mg/L

Compound: C[C@@H]1CN(c2c(F)c(N)c3c(=O)c(C(=O)O)cn(C4CC4)c3c2F)C[C@H](C)N1 [Sparfloxacin]
- MIC, S. aureus, MHB+ [1]: 0.25 μg of antimicrobial agent/mL of buffer
- MIC [1]: 0.125 mg/L
- MIC, E. coli, MHB+ [2]: 32 μg of antimicrobial agent/mL of buffer
- MIC [2, 4]: 16 mg/L

Compound: CN[C@@H]1[C@H](O)[C@H](NC)[C@H]2O[C@@]3(O)C(=O)C[C@@H](C)O[C@H]3O[C@@H]2[C@H]1O [Spectinomycin]
- MIC, S. aureus, MHB+ [1]: 8
- MIC [1]: 64 mg/L
- MIC [2, 3]: 16 mg/L

Compound: CC[C@H]1OC(=O)[C@H](C)C(=O)[C@H](C)[C@@H](O[C@@H]2O[C@H](C)C[C@H](N(C)C)[C@H]2O)[C@](C)(OC)C[C@@H](C)C(=O)[C@H](C)[C@H]2N(CCCCn3cnc(-c4cccnc4)c3)C(=O)O[C@]12C [Telithromycin]
- MIC, S. aureus, MHB+ [1]: 0.5 μg of antimicrobial agent/mL of buffer
- MIC [1]: 4 mg/L
- MIC, E. coli, MHB+ [2]: 16 μg of antimicrobial agent/mL of buffer
- MIC [2, 4]: > 128 mg/L

Compound: C=C(NC(=O)C(=C)NC(=O)c1csc(C2=N[C@@H]3c4csc(n4)[C@H]4NC(=O)c5csc(n5)[C@H]([C@](C)(O)[C@@H](C)O)NC(=O)[C@H]5CSC(=N5)/C(=C/C)NC(=O)[C@H]([C@@H](C)O)NC(=O)c5csc(n5)[C@]3(CC2)NC(=O)[C@H](C)NC(=O)C(=C)NC(=O)[C@H](C)NC(=O)[C@H]([C@@H](C)CC)N[C@@H]2C=Cc3c([C@H](C)O)cc(nc3[C@H]2O)C(=O)O[C@@H]4C)n1)C(N)=O [Thiostrepton]
- MIC [1]: 0.5 mg/L
- MIC, S. aureus, MHB+ [1, 5]: 0.12 μg of antimicrobial agent/mL of buffer
- MIC [2]: > 128 mg/L
- MIC, E. coli, MHB+ [2, 5]: >128 μg of antimicrobial agent/mL of buffer

Compound: CC1(C)S[C@@H]2[C@H](NC(=O)[C@H](C(=O)O)c3ccsc3)C(=O)N2[C@H]1C(=O)O [Ticarcillin]
- MIC, S. aureus, MHB+ [1]: 32 μg of antimicrobial agent/mL of buffer
- MIC [1]: 8 mg/L
- MIC, E. coli, MHB+ [2]: 64 μg of antimicrobial agent/mL of buffer
- MIC [2, 4]: 32 mg/L

Compound: NC[C@H]1O[C@H](O[C@H]2[C@H](O)[C@@H](O[C@H]3O[C@H](CO)[C@@H](O)[C@H](N)[C@H]3O)[C@H](N)C[C@@H]2N)[C@H](N)C[C@@H]1O [Tobramycin]
- MIC, S. aureus, MHB+ [1]: 0.5 μg of antimicrobial agent/mL of buffer
- MIC [1]: 0.25 mg/L
- MIC, E. coli, MHB+ [2]: 0.25 μg of antimicrobial agent/mL of buffer
- MIC [2, 4]: 0.25 mg/L

Compound: Oc1cc(Cl)ccc1Oc1ccc(Cl)cc1Cl [Triclosan]
- MIC, S. aureus, MHB+ [1]: 0.062 μg of antimicrobial agent/mL of buffer
- MIC [1]: 0.062 mg/L
- MIC, E. coli, MHB+ [2]: 0.125 μg of antimicrobial agent/mL of buffer
- MIC [2, 4]: 0.125 mg/L

Compound: CN[C@H](CC(C)C)C(=O)N[C@H]1C(=O)N[C@@H](CC(N)=O)C(=O)N[C@H]2C(=O)N[C@H]3C(=O)N[C@H](C(=O)N[C@H](C(=O)O)c4cc(O)cc(O)c4-c4cc3ccc4O)[C@H](O)c3ccc(c(Cl)c3)Oc3cc2cc(c3O[C@@H]2O[C@H](CO)[C@@H](O)[C@H](O)[C@H]2O[C@H]2C[C@](C)(N)[C@H](O)[C@H](C)O2)Oc2ccc(cc2Cl)[C@H]1O [Vancomycin]
- MIC, S. aureus, MHB+ [1, 6]: 4
- MIC [1]: 1 mg/L
- MIC [2]: 256 mg/L
- MIC, E. coli, MHB+ [2, 6]: 256

Compound: O=C(O)c1ccc(O)cc1 [p-hydroxybenzoate]
- MIC, S. aureus, MHB [1, 7]: 16 μg of antimicrobial agent/mL of buffer
- MIC, S. aureus, MHB+ [1, 8]: 16 μg of antimicrobial agent/mL of buffer
- Fold, S. aureus ([1]; antiseptic agents): 1
- Fold, E. coli [2]: 1
- MIC, E. coli, MHB [2]: 64 μg of antimicrobial agent/mL of buffer
- MIC, E. coli, MHB+ [2]: 64 μg of antimicrobial agent/mL of buffer

Compound: Cc1cc(NS(=O)(=O)c2ccc(N)cc2)no1 [sulfamethoxazole]
- effect of 25 mM sodium bicarbonate on antibacterial activity ([1]; S. aureus): remained largely unchanged
- effect of 25 mM sodium bicarbonate on antibacterial activity [2]: remained largely unchanged

Compound: COc1cc(Cc2cnc(N)nc2N)cc(OC)c1OC [trimethoprim]
- effect of 25 mM sodium bicarbonate on antibacterial activity ([1]; S. aureus): remained largely unchanged
- effect of 25 mM sodium bicarbonate on antibacterial activity [2]: remained largely unchanged

Compound: Benzalkonium chloride
- MIC, S. aureus, MHB [1, 7]: 0.5 μg of antimicrobial agent/mL of buffer
- MIC, S. aureus, MHB+ [1, 8]: 0.25 μg of antimicrobial agent/mL of buffer
- Fold, S. aureus ([1]; antiseptic agents): 2
- Fold, E. coli [2]: 4
- MIC, E. coli, MHB [2]: 32 μg of antimicrobial agent/mL of buffer
- MIC, E. coli, MHB+ [2]: 8 μg of antimicrobial agent/mL of buffer

Compound: Colistin
- MIC, S. aureus, MHB− [1, 4]: >128 μg of antimicrobial agent/mL of buffer
- MIC, S. aureus, MHB+ [1, 5]: >128 μg of antimicrobial agent/mL of buffer
- Fold, S. aureus ([1]; antibiotic agents, MHB− vs MHB+): 1
- MIC, E. coli, MHB+ [2]: 0.5 μg of antimicrobial agent/mL of buffer
- MIC, E. coli, MHB− [2, 4]: 0.5 μg of antimicrobial agent/mL of buffer
- Fold, E. coli ([2]; antibiotic agents, fold shift in MIC, MHB− vs MHB+): 1
